Read-outs that look alike come from different tables or passages of the source. *1 amine or outer side, *2 acyl side, *3 side chain or, on linkers, in order; H or OH if unused. Where a SMILES comes first, the peptide text is derived from it. Bridges are numbered along the chain shown (N, C = ends). [ ]: non-standard residue; d: D form. The star is where a group is joined. hPhe(3-Cl-4-CF3) = N[C@@H](CCc1ccc(C(F)(F)F)c(Cl)c1)C(=O)O; NPrPhe(4-CF3) = CCCN[C@@H](Cc1ccc(C(F)(F)F)cc1)C(=O)O; NMeAbu(4,4,4-F3) = CN[C@@H](CC(F)(F)F)C(=O)O; X43 = CCCN([C@@H](Cc1ccccc1)C(=O)[*:2])[*:1]; NMeGly(cPent) = CN[C@H](C(=O)O)C1CCCC1; Hyp = O=C(O)[C@@H]1C[C@@H](O)CN1; NMeD = CN[C@@H](CC(=O)O)C(=O)O; NMeL = CN[C@@H](CC(C)C)C(=O)O; Morpholide = C1CN(*)CCO1; NMeA = CN[C@@H](C)C(=O)O; Ac5c = NC1(C(=O)O)CCCC1; Aze = O=C(O)[C@@H]1CCN1; Ac4c = NC1(C(=O)O)CCC1; Sar = CNCC(=O)O
How the values were obtained:
[1] = target: GDP-bound NRAS wild-type protein (Homo sapiens, UniProt P01111); assay: Binding to NRAS by surface plasmon resonance (SPR), Single Cycle Kinetics; settings: for NRAS/KRAS (ratio of KD value for NRAS to KD value for KRAS) / NRAS/KRAS (ratio of KD value with respect to NRAS to KD value with respect to KRAS): SPR, GDP-bound NRAS wild-type protein vs GDP-bound KRAS wild-type protein; for NRAS/KRAS (ratio of KD value with respect to GDP-bound NRAS wild-type protein to KD value with respect to KRAS): SPR KD ratio NRAS/KRAS, class symbols
GDP-bound NRAS wild-type protein, sequence (P01111 whole entry): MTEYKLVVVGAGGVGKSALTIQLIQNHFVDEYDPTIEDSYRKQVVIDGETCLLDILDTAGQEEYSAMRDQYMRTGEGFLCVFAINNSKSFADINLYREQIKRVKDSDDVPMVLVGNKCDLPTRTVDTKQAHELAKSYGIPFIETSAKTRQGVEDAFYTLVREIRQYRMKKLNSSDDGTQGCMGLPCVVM

[2] = target: GDP-bound KRAS wild-type protein (Homo sapiens, UniProt P01116); assay: Binding to KRAS by surface plasmon resonance (SPR), Single Cycle Kinetics; settings: GDP-bound KRAS wild-type protein, read-out: KRAS KD
GDP-bound KRAS wild-type protein, sequence (P01116 whole entry): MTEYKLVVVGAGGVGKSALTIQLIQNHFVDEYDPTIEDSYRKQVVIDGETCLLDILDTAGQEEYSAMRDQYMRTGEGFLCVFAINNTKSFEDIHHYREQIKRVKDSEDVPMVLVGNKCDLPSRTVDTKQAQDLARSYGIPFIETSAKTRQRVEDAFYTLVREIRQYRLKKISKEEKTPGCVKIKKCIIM

[3] = target: GDP-bound HRAS wild-type protein (Homo sapiens, UniProt P01112); assay: Binding to HRAS by surface plasmon resonance (SPR), Single Cycle Kinetics; settings: for HRAS/KRAS (ratio of KD value for HRAS to KD value for KRAS) / HRAS/KRAS (ratio of KD value with respect to HRAS to KD value with respect to KRAS): SPR, GDP-bound HRAS wild-type protein vs GDP-bound KRAS wild-type protein; for HRAS/KRAS (ratio of KD value with respect to GDP-bound HRAS wild-type protein to KD value with respect to KRAS): SPR KD ratio HRAS/KRAS, class symbols
GDP-bound HRAS wild-type protein, sequence (P01112 whole entry): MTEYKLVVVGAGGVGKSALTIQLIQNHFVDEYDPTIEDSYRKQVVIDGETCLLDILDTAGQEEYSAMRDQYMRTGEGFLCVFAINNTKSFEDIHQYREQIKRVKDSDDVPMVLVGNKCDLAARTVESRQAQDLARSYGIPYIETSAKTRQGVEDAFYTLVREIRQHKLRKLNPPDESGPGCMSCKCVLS

[4] = SPR Single Cycle Kinetics, 1:1 binding model

Compound | NRAS/KRAS (ratio of KD value for NRAS to KD value for KRAS) [1] | Kd [2, 4] [nM] | HRAS/KRAS (ratio of KD value for HRAS to KD value for KRAS) [3] | Kd ([2]; SPR, Single Cycle Kinetics) [nM] | further results
CCCN1C(=O)[C@@H]2CCN2C(=O)[C@H](C)N(C)C(=O)[C@H]([C@@H](C)CC)NC(=O)[C@H](CC(F)(F)F)N(C)C(=O)C[C@@H](C(=O)N2CCOCC2)N(C)C(=O)[C@H](C2CCCC2)N(C)C(=O)C2(CCCC2)NC(=O)[C@@H]2CCCN2C(=O)[C@H](CCc2ccc(C(F)(F)F)c(Cl)c2)NC(=O)CN(C)C(=O)[C@@H]1Cc1ccc(C(F)(F)F)cc1 [PP0191] ([NMeAbu(4,4,4-F3)]I[NMeA][Aze][NPrPhe(4-CF3)][Sar][hPhe(3-Cl-4-CF3)]P[Ac5c][NMeGly(cPent)][NMeD]-Morpholide; lactam N-11) | C (A compound having a KD ratio of 0.1 or more and less than 3 is denoted as C) | 0.14 | B (a compound having 3 or more and less than 10 is denoted as B) | – | –
CCCC[C@H]1C(=O)N[C@@H]([C@@H](C)CC)C(=O)N(C)CC(=O)N(C)[C@H]2C/C=C\CCN(C2=O)[C@@H](Cc2ccc(C)cc2)C(=O)N(C)CC(=O)N[C@@H](CCc2cc(F)c(C(F)(F)F)c(F)c2)C(=O)N2C[C@H](OCC)C[C@H]2C(=O)NC2(CC(C)(C)C2)C(=O)N(C)[C@@H](C2CCCC2)C(=O)N(C)[C@H](C(=O)N(C)CC)CC(=O)N1C [PP2808] | – | 0.43 | – | – | NRAS/KRAS (ratio of KD value with respect to GDP-bound NRAS wild-type protein to KD value with respect to KRAS) [1]: B (a compound having 3 or more and less than 10 is denoted as B); HRAS/KRAS (ratio of KD value with respect to GDP-bound HRAS wild-type protein to KD value with respect to KRAS) [3]: B (a compound having 3 or more and less than 10 is denoted as B)
CC[C@H](C)[C@@H]1NC(=O)[C@H](CC(C)C)N(C)C(=O)C[C@@H](C(=O)N2CCOCC2)N(C)C(=O)[C@H](C2CCCC2)N(C)C(=O)C2(CCC2)NC(=O)[C@@H]2CCCN2C(=O)[C@H](CCc2ccc(C(F)(F)F)c(Cl)c2)NC(=O)CN(C)C(=O)[C@H](Cc2ccc(F)cc2)N2CCCCC[C@@H](C2=O)N(C)C(=O)CN(C)C1=O [PP0967] | B (a compound having 3 or more and less than 10 is denoted as B) | – | B (a compound having 3 or more and less than 10 is denoted as B) | 0.33 | –
CCO[C@@H]1C[C@H]2C(=O)NC3(CC(F)(F)C3)C(=O)N(C)[C@@H](C3CCCC3)C(=O)N(C)C(C(C)C)CC(=O)N(C)[C@@H](CC3CC3)C(=O)N[C@@H]([C@@H](C)CC)C(=O)N(C)CC(=O)N(C)[C@H]3C/C=C\CCN(C3=O)[C@@H](Cc3ccc(C(F)(F)F)cc3)C(=O)N(C)CC(=O)N[C@@H](CCc3cc(F)c(C(F)(F)F)c(F)c3)C(=O)N2C1 (stereo partly drawn) [PP1598] | – | – | – | – | NRAS/KRAS (ratio of KD value for NRAS to KD value for KRAS) ([1]; KD ratio class): A (a compound having 10 or more and less than 20 is denoted as A); Kd ([2]; SPR, Single Cycle Kinetics, 1:1 binding model): 0.76 nM; HRAS/KRAS (ratio of KD value for HRAS to KD value for KRAS) ([3]; KD ratio class): A (a compound having 10 or more and less than 20 is denoted as A)
CCC[C@H]1C(=O)N[C@@H]([C@@H](C)CC)C(=O)N(C)CC(=O)N(C)[C@H]2C/C=C\CCN(C2=O)[C@@H](Cc2ccc(C)cc2)C(=O)N(C)CC(=O)N[C@@H](CCc2ccc3sc(F)c(C)c3c2)C(=O)N2C[C@H](OCC)C[C@H]2C(=O)NC2(CC(C)(C)C2)C(=O)N(C)[C@@H](C(CC)CC)C(=O)N(C)[C@H](C(=O)N(C)C)CC(=O)N1C [PP2894] | – | 0.31 | – | – | NRAS/KRAS (ratio of KD value with respect to GDP-bound NRAS wild-type protein to KD value with respect to KRAS) [1]: AA (a compound having 20 or more is denoted as AA); HRAS/KRAS (ratio of KD value with respect to GDP-bound HRAS wild-type protein to KD value with respect to KRAS) [3]: A (a compound having 10 or more and less than 20 is denoted as A)
CCO[C@@H]1C[C@H]2C(=O)NC3(CCC3)C(=O)N(C)[C@@H](C3CCCC3)C(=O)N(C)[C@H](C(=O)N3CCOCC3)CC(=O)N(C)[C@@H](CC(C)C)C(=O)N[C@@H]([C@@H](C)CC)C(=O)N(C)CC(=O)N(C)[C@H]3C[C@@H](C)CCN(C3=O)[C@@H](Cc3ccc(C(F)(F)F)cc3)C(=O)N(C)CC(=O)N[C@@H](CCc3cc(F)c(C(F)(F)F)c(F)c3)C(=O)N2C1 [PP1025] | C (A compound having a KD ratio of 0.1 or more and less than 3 is denoted as C) | – | B (a compound having 3 or more and less than 10 is denoted as B) | 0.056 | –
CCCN1C(=O)CN(C)C(=O)CNC(=O)[C@H]([C@@H](C)CC)NC(=O)[C@H](CC(C)C)N(C)C(=O)C[C@@H](C(=O)N(C)C)N(C)C(=O)[C@H](C2CCCC2)N(C)C(=O)C2(CCCC2)NC(=O)[C@@H]2CCCN2C(=O)[C@H](CCc2ccc(C(F)(F)F)c(Cl)c2)NC(=O)CN(C)C(=O)[C@@H]1Cc1ccc(C(F)(F)F)cc1 [PP0417] ([NMeL]IG[Sar][NPrPhe(4-CF3)][Sar][hPhe(3-Cl-4-CF3)]P[Ac5c][NMeGly(cPent)][NMeD]-NMe2; lactam N-11) | – | 0.074 | – | – | NRAS/KRAS (ratio of KD value with respect to NRAS to KD value with respect to KRAS) [1]: B (a compound having 3 or more and less than 10 is denoted as B); HRAS/KRAS (ratio of KD value with respect to HRAS to KD value with respect to KRAS) [3]: C (A compound having a KD ratio of 0.1 or more and less than 3 is denoted as C)
CC[C@H](C)[C@@H]1NC(=O)[C@H](CC)N(C)C(=O)C[C@@H](C(=O)N2CCOCC2)N(C)C(=O)[C@H](C2CCCC2)N(C)C(=O)C2(CCCC2)NC(=O)[C@@H]2CCCN2C(=O)[C@H](CCc2cc(F)c(C(F)(F)F)c(F)c2)NC(=O)CN(C)C(=O)[C@H](Cc2ccc(C(F)(F)F)cc2)N2CCCCC[C@@H](C2=O)N(C)C(=O)CN(C)C1=O [PP0488] | – | 2.8 | – | – | NRAS/KRAS (ratio of KD value with respect to NRAS to KD value with respect to KRAS) [1]: A (a compound having 10 or more and less than 20 is denoted as A); HRAS/KRAS (ratio of KD value with respect to HRAS to KD value with respect to KRAS) [3]: B (a compound having 3 or more and less than 10 is denoted as B)
CCCN1C(=O)CN(C)C(=O)CNC(=O)[C@H]([C@@H](C)CC)NC(=O)[C@H](CC(C)C)N(C)C(=O)C[C@@H](C(=O)N2CCOCC2)N(C)C(=O)[C@H](C2CCCC2)N(C)C(=O)C2(CCC2)NC(=O)[C@@H]2C[C@@H](OCC)CN2C(=O)[C@H](CCc2ccc(C(F)(F)F)c(Cl)c2)NC(=O)CN(C)C(=O)[C@@H]1Cc1ccc(C(F)(F)F)cc1 [PP0397] ([NMeL]IG[Sar][NPrPhe(4-CF3)][Sar][hPhe(3-Cl-4-CF3)][Hyp](Et)[Ac4c][NMeGly(cPent)][NMeD]-Morpholide; lactam N-11) | C (A compound having a KD ratio of 0.1 or more and less than 3 is denoted as C) | 0.12 | C (A compound having a KD ratio of 0.1 or more and less than 3 is denoted as C) | – | –
CCO[C@@H]1C[C@H]2C(=O)NC3(CCC3)C(=O)N(C)[C@@H](C3CCCC3)C(=O)N(C)[C@H](C(=O)N(C)C)CC(=O)N(C)[C@@H](CC3CC3)C(=O)N[C@@H]([C@@H](C)CC)C(=O)N(C)CC(=O)N(C)[C@H]3C/C=C\CCN(C3=O)[C@@H](Cc3ccc(C(F)(F)F)cc3)C(=O)N(C)CC(=O)N[C@@H](CCc3cc(F)c(C(F)(F)F)c(F)c3)C(=O)N2C1 [PP1111, (2S,8S,12R,14S,20S,23S,27S,30S,36S,38Z)-20-cyclopentyl-27-(cyclopropylmethyl)-8-[2-[3,5-difluoro-4-(trifluoromethyl)phenyl]ethyl]-12-ethoxy-N,N,4,19,22,26,32,35-octamethyl-30-[(1S)-1-methylpropyl]-3,6,9,15,18,21,25,28,31,34,42-undecaoxo-2-[[4-(trifluoromethyl)phenyl]methyl]spiro[1,4,7,10,16,19,22,26,29,32,35-undecazatricyclo[34.5.1.0^10,14]dotetracont-38-ene-17,1′-cyclobutane]-23-carboxamide] | A (a compound having 10 or more and less than 20 is denoted as A) | – | A (a compound having 10 or more and less than 20 is denoted as A) | 0.045 | –
CCCN1C(=O)CN(C)C(=O)CN(C)C(=O)[C@H]([C@@H](C)CC)NC(=O)[C@H](CC(C)C)N(C)C(=O)C[C@@H](C(=O)N2CCOCC2)N(C)C(=O)[C@H](C2CCCC2)N(C)C(=O)C2(CCCC2)NC(=O)[C@@H]2CCCN2C(=O)[C@H](CCc2ccc(C(F)(F)F)c(Cl)c2)NC(=O)CN(C)C(=O)[C@@H]1Cc1ccccc1 [PP0211] ([NMeL]I[Sar][Sar][X43][Sar][hPhe(3-Cl-4-CF3)]P[Ac5c][NMeGly(cPent)][NMeD]-Morpholide; lactam N-11) | B (a compound having 3 or more and less than 10 is denoted as B) | 0.27 | C (A compound having a KD ratio of 0.1 or more and less than 3 is denoted as C) | – | –
CCO[C@@H]1C[C@H]2C(=O)NC3(CCC3)C(=O)N(C)[C@@H](C3CCCC3)C(=O)N(C)[C@H](C(=O)N3CCOCC3)CC(=O)N(C)[C@@H](Cc3ccccc3F)C(=O)N[C@@H]([C@@H](C)CC)C(=O)N(C)CC(=O)N(C)[C@H]3CCCCCN(C3=O)[C@@H](Cc3ccc(C(F)(F)F)cc3)C(=O)N(C)CC(=O)N[C@@H](CCc3cc(F)c(C(F)(F)F)c(F)c3)C(=O)N2C1 [PP0926] | B (a compound having 3 or more and less than 10 is denoted as B) | – | B (a compound having 3 or more and less than 10 is denoted as B) | 2.4 | –
